Like-named read-outs stand apart in the source and are kept apart here.
Legend:
[1] = system: Salmonella Typhimurium TA97a; test: Ames test, plate incorporation method, TA97a; type: cell-based
Description: (§1) Salmonella Typhimurium TA97a, TA98, TA100, TA102, and TA1535 from MOLT OX, USA, were purchased from Shanghai Bioplus Biotech.
(§2) Rat liver S9 from Shanghai Bioplus Biotech. Co., Ltd.
(§3) The experiments were performed using the plate incorporation method.
(§4) Dose selection: The experiments were performed using 5 mg, 2.5 mg, 1.25 mg, 0.625 mg, 0.3125 mg, and 0.15625 mg per dish.
(§5) 0.1 ml of frozen bacterial solutions TA97a, TA98, TA100, TA102 and TA1535 were inoculated into the 10 ml nutrient broth mediums respectively, and cultured at 37° C. (100/min) for 10 h with shaking (100 times/min). 2.0 ml of top layer medium containing 0.5 mmol/L histidine −0.5 mmol/L biotin was dispensed into test tubes, sterilized by 0.103 MPa for 20 min, and kept in a water bath at 50° C. Then, 0.1 ml of the test substance solution, 0.5 ml of the S9 mixture (when metabolic activation was required) and 0.1 ml of the bacterial solution were added into each tube successively, mixed sufficiently, and poured into the bottom layer agar plates quickly. Then, the plates were turned to distribute even. After being placed horizontally for condensation and solidification, the plates were inverted and incubated in an incubator at 37° C. for 48 h, and the number of reverse mutation colonies per dish was counted. Three parallel plates of each dose were made, containing the spontaneous reverse mutation group, the solvent control group and the positive control group.
(§6) The data were expressed as means±standards deviation (x±s), and SPSS 19.0 was used for calculation of data analysis.
(§7) If the test substance tested by the above test strain is negative both with and without S9, then the test substance is determined to be mutagenic negative.

[2] = system: Salmonella Typhimurium TA98; test: Ames test, plate incorporation method, TA98; type: cell-based
Description: as §1, §2, §3, §4, §5, §6, §7

[3] = system: Salmonella Typhimurium TA100; test: Ames test, plate incorporation method, TA100; type: cell-based
Description: as §1, §2, §3, §4, §5, §6, §7

[4] = system: Salmonella Typhimurium TA102; test: Ames test, plate incorporation method, TA102; type: cell-based
Description: (§8) Salmonella Typhimurium TA97a, TA98, TA100, TA102, and TA1535 from MOLT OX, USA, were purchased from Shanghai Bioplus Biotech. Co., Ltd. The test was carried out using Salmonella typhimurium strains that were identified as meeting the requirements.
as §2, §3, §4
(§9) Test substance preparation: nitrosamine impurity compound P08 was prepared to a solution of 50 mg/ml with dimethyl-sulfoxide, and diluted with dimethyl-sulfoxide to give the solutions of 25 mg/ml, 12.5 mg/ml, 6.25 mg/ml, 3.125 mg/ml, and 1.5625 mg/ml successively.
as §5, §6, §7

[5] = system: Salmonella Typhimurium TA1535; type: cell-based
Description: as §8, §2, §3, §4, §9, §5, §6, §7

Salmonella typhimurium = test: Ames test, overall result determination; type: cell-based; settings: in the presence and absence of metabolic activation system
Description: Whether nitrosamine impurity compound P08 is genotoxic (capable of mutagenicity or carcinogenesis) was detected.
as §7

[6] = Stability of solutions (control solution and sample solution at room temperature); type: physicochemical
Description: Control stock solution: 7.5 mg of the nitrosamine compound P08 (purity≥98%) was weighed into a 100 ml volumetric flask, dissolved and diluted with acetonitrile to volume (volumetric solution 1A). 1.0 mL of the volumetric solution 1A was added into a 100 ml volumetric flask, and diluted with acetonitrile to volume (volumetric solution 1B). 1.0 mL of the volumetric solution 1B was added into a 20 ml volumetric flask, and diluted with acetonitrile to volume to obtain the control stock solution.
Control solution: 1.0 mL of the control stock solution was added into a 10 ml volumetric flask, and diluted with acetonitrile to volume to obtain the control solution.
Sample solution: 10 varenicline tartrate tablets were placed in a 10 ml volumetric flask, added with 3 mL of purified water and 3 mL of acetonitrile, sonicated for 30s, then diluted with acetonitrile to volume and mixed evenly.
The control solution and the sample solution were placed at room temperature, then injected for analysis at intervals of 0, 2, 4, 6, 8, 10, 12 hours, and the peak area ratio of each time point to the zero point (i.e., peak area change rate) was calculated.

## O=NN1CC2CC(C1)c1cc3nccnc3cc12 [P08]
[1]; +S9, 156.25 μg/dish
  number of reverse mutation colonies per dish (x ± s): 209 ± 16
[1]; +S9, 312.5 μg/dish
  number of reverse mutation colonies per dish (x ± s): 248 ± 13
[1]; +S9, 625 μg/dish
  number of reverse mutation colonies per dish (x ± s): 242 ± 17
[1]; +S9, 1250 μg/dish
  number of reverse mutation colonies per dish (x ± s): 279 ± 5
[1]; +S9, 2500 μg/dish
  number of reverse mutation colonies per dish (x ± s): 297 ± 8
[1]; +S9, 5000 μg/dish
  number of reverse mutation colonies per dish (x ± s): 310 ± 19
[1]; −S9, 156.25 μg/dish
  number of reverse mutation colonies per dish (x ± s): 158 ± 11
[1]; −S9, 312.5 μg/dish
  number of reverse mutation colonies per dish (x ± s): 175 ± 6
[1]; −S9, 625 μg/dish
  number of reverse mutation colonies per dish (x ± s): 175 ± 12
[1]; −S9, 1250 μg/dish
  number of reverse mutation colonies per dish (x ± s): 160 ± 15
[1]; −S9, 2500 μg/dish
  number of reverse mutation colonies per dish (x ± s): 165 ± 10
[1]; −S9, 5000 μg/dish
  number of reverse mutation colonies per dish (x ± s): 159 ± 5
[2]; TA98, +S9, 156.25 μg/dish
  number of reverse mutation colonies per dish (x ± s): 33 ± 6
[2]; TA98, +S9, 312.5 μg/dish
  number of reverse mutation colonies per dish (x ± s): 34 ± 1
[2]; TA98, +S9, 625 μg/dish
  number of reverse mutation colonies per dish (x ± s): 35 ± 2
[2]; TA98, +S9, 1250 μg/dish
  number of reverse mutation colonies per dish (x ± s): 41 ± 6
[2]; TA98, +S9, 2500 μg/dish
  number of reverse mutation colonies per dish (x ± s): 59 ± 4
[2]; TA98, +S9, 5000 μg/dish
  number of reverse mutation colonies per dish (x ± s): 53 ± 6
[2]; TA98, adding S9, 2500 μg/dish
  number of colonies relative to that of the solvent control: more than twice
[2]; TA98, −S9, 156.25 μg/dish
  number of reverse mutation colonies per dish (x ± s): 29 ± 2
[2]; TA98, −S9, 312.5 μg/dish
  number of reverse mutation colonies per dish (x ± s): 27 ± 3
[2]; TA98, −S9, 625 μg/dish
  number of reverse mutation colonies per dish (x ± s): 28 ± 2
[2]; TA98, −S9, 1250 μg/dish
  number of reverse mutation colonies per dish (x ± s): 30 ± 3
[2]; TA98, −S9, 2500 μg/dish
  number of reverse mutation colonies per dish (x ± s): 31 ± 3
[2]; TA98, −S9, 5000 μg/dish
  number of reverse mutation colonies per dish (x ± s): 32 ± 2
[3]; TA100, +S9, 156.25 μg/dish
  number of reverse mutation colonies per dish (x ± s): 225 ± 9
[3]; TA100, +S9, 312.5 μg/dish
  number of reverse mutation colonies per dish (x ± s): 234 ± 6
[3]; TA100, +S9, 625 μg/dish
  number of reverse mutation colonies per dish (x ± s): 271 ± 11
[3]; TA100, +S9, 1250 μg/dish
  number of reverse mutation colonies per dish (x ± s): 287 ± 13
[3]; TA100, +S9, 2500 μg/dish
  number of reverse mutation colonies per dish (x ± s): 364 ± 19
[3]; TA100, +S9, 5000 μg/dish
  number of reverse mutation colonies per dish (x ± s): 378 ± 18
[3]; TA100, −S9, 156.25 μg/dish
  number of reverse mutation colonies per dish (x ± s): 218 ± 20
[3]; TA100, −S9, 312.5 μg/dish
  number of reverse mutation colonies per dish (x ± s): 234 ± 31
[3]; TA100, −S9, 625 μg/dish
  number of reverse mutation colonies per dish (x ± s): 224 ± 3
[3]; TA100, −S9, 1250 μg/dish
  number of reverse mutation colonies per dish (x ± s): 220 ± 10
[3]; TA100, −S9, 2500 μg/dish
  number of reverse mutation colonies per dish (x ± s): 193 ± 25
[3]; TA100, −S9, 5000 μg/dish
  number of reverse mutation colonies per dish (x ± s): 206 ± 25
[4]; TA102, +S9, 156.25 μg/dish
  number of reverse mutation colonies per dish (x ± s): 249 ± 13
[4]; TA102, +S9, 312.5 μg/dish
  number of reverse mutation colonies per dish (x ± s): 253 ± 24
[4]; TA102, +S9, 625 μg/dish
  number of reverse mutation colonies per dish (x ± s): 296 ± 21
[4]; TA102, +S9, 1250 μg/dish
  number of reverse mutation colonies per dish (x ± s): 272 ± 17
[4]; TA102, +S9, 2500 μg/dish
  number of reverse mutation colonies per dish (x ± s): 283 ± 11
[4]; TA102, +S9, 5000 μg/dish
  number of reverse mutation colonies per dish (x ± s): 320 ± 15
[4]; TA102, −S9, 156.25 μg/dish
  number of reverse mutation colonies per dish (x ± s): 208 ± 13
[4]; TA102, −S9, 312.5 μg/dish
  number of reverse mutation colonies per dish (x ± s): 237 ± 6
[4]; TA102, −S9, 625 μg/dish
  number of reverse mutation colonies per dish (x ± s): 236 ± 20
[4]; TA102, −S9, 1250 μg/dish
  number of reverse mutation colonies per dish (x ± s): 245 ± 4
[4]; TA102, −S9, 2500 μg/dish
  number of reverse mutation colonies per dish (x ± s): 219 ± 11
[4]; TA102, −S9, 5000 μg/dish
  number of reverse mutation colonies per dish (x ± s): 211 ± 8
[5]; TA1535, +S9, 156.25 μg/dish
  number of reverse mutation colonies per dish (x ± s): 21 ± 0
[5]; TA1535, +S9, 312.5 μg/dish
  number of reverse mutation colonies per dish (x ± s): 20 ± 3
[5]; TA1535, +S9, 625 μg/dish
  number of reverse mutation colonies per dish (x ± s): 35 ± 7
[5]; TA1535, +S9, 1250 μg/dish
  number of reverse mutation colonies per dish (x ± s): 34 ± 3
[5]; TA1535, +S9, 2500 μg/dish
  number of reverse mutation colonies per dish (x ± s): 38 ± 5
[5]; TA1535, +S9, 5000 μg/dish
  number of reverse mutation colonies per dish (x ± s): 46 ± 6
[5]; TA1535, no S9, 625 μg/dish
  number of colonies relative to that of the solvent control: more than twice
[5]; TA1535, with S9, 5000, 2500, 1250 and 625 μg/dish, dose-response relationship
  number of colonies relative to that of the solvent control: more than twice
[5]; TA1535, −S9, 156.25 μg/dish
  number of reverse mutation colonies per dish (x ± s): 23 ± 2
[5]; TA1535, −S9, 312.5 μg/dish
  number of reverse mutation colonies per dish (x ± s): 36 ± 1
[5]; TA1535, −S9, 625 μg/dish
  number of reverse mutation colonies per dish (x ± s): 42 ± 4
[5]; TA1535, −S9, 1250 μg/dish
  number of reverse mutation colonies per dish (x ± s): 18 ± 2
[5]; TA1535, −S9, 2500 μg/dish
  number of reverse mutation colonies per dish (x ± s): 28 ± 2
[5]; TA1535, −S9, 5000 μg/dish
  number of reverse mutation colonies per dish (x ± s): 20 ± 2
Salmonella typhimurium
  mutagenicity determination (Ames test): mutagenic positive
[6]; control solution (acetonitrile)
  peak area change rate within 12 hours: < 12%
[6]; sample solution (tablets in water/acetonitrile)
  peak area change rate within 12 hours: < 3.5%
